As usually defined, the inhibition is the change of the read-out against control, counted positive when it falls.

The test system of assay [1] is HCT-116. In words: Antiproliferative activity against human HCT-116 cells assessed as inhibition of cell proliferation at 10 uM incubated for 72 hrs by CCK8 assay relative to control. It counts as functional. More on the design: scale not given: the % may be the effect or the level left. Background: Tetrazolium dyes change colour on reduction, which living cells bring about.

Assay [2] deals with Phosphatidylinositol 4,5-bisphosphate 3-kinase catalytic subunit alpha isoform (Homo sapiens) (UniProt P42336). In words: Inhibition on PI3Kalpha (unknown origin) at 1 nM by kinase-glo plus luminescent assay relative to control. On the technique in general: In Kinase-Glo more light means more ATP remaining.
Chain of Phosphatidylinositol 4,5-bisphosphate 3-kinase catalytic subunit alpha isoform (Homo sapiens) (P42336 whole entry, canonical isoform): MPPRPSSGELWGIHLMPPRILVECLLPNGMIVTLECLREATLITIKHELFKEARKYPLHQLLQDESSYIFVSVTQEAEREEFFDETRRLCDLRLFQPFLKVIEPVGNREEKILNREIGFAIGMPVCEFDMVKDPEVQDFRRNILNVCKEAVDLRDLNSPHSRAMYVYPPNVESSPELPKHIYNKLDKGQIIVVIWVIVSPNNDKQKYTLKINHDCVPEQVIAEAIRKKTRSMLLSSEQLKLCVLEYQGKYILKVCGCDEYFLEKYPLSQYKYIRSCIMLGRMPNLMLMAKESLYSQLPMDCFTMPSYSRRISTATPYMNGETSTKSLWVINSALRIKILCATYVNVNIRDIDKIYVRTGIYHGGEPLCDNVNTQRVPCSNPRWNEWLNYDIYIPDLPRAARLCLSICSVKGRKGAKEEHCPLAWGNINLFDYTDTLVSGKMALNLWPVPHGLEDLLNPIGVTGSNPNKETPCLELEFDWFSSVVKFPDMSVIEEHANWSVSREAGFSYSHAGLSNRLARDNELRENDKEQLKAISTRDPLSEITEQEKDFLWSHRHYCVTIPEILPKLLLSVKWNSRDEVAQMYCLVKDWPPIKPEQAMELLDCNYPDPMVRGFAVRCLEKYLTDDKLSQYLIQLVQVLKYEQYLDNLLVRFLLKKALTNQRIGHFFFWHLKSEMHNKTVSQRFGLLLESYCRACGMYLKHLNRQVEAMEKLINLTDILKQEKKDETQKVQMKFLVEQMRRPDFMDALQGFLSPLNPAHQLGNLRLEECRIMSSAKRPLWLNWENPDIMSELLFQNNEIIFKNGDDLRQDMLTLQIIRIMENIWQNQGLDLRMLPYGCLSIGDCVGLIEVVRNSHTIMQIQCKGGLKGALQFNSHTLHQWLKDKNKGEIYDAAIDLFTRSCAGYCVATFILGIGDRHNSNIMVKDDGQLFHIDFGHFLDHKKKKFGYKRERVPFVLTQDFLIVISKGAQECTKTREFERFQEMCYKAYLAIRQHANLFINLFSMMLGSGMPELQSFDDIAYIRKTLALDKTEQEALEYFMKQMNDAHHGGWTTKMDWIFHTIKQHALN
The subject of assay [3] is HeLa. In words: Antiproliferative activity against human HeLa cells assessed as inhibition of cell proliferation at 10 uM incubated for 72 hrs by CCK8 assay relative to control. The class given is functional. More on the design: scale not given: the % may be the effect or the level left.
The subject of assay [4] is HT-29. In words: Antiproliferative activity against human HT-29 cells assessed as inhibition of cell proliferation at 10 uM incubated for 72 hrs by CCK8 assay relative to control. It counts as functional. More on the design: scale not given: the % may be the effect or the level left.
The target in assay [5] is T1, von Hippel-Lindau disease tumor suppressor/Phosphatidylinositol 4,5-bisphosphate 3-kinase catalytic subunit alpha isoform (Homo sapiens) (UniProt P42336+P40337). In words: PROTAC activity at VHL/PI3K in human HeLa cells assessed as induction of PI3Kalpha degradation at 1 to 10 uM incubated for 24 hrs by Western blotting analysis. It counts as cell-based. To be noted: dose 1-10 µM. A general note: Immunoblotting shows a protein as a band on a membrane.
T1 sequence (P40337 whole entry, looked up, canonical isoform): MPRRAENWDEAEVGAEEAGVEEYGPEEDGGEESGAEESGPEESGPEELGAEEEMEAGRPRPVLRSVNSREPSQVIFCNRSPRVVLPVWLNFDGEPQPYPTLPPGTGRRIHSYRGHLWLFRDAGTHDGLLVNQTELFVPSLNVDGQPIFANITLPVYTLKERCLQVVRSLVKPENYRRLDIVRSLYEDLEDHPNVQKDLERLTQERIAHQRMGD
T1 sequence (P42336 whole entry, looked up, canonical isoform): as the sequence (P42336 whole entry, canonical isoform) above

The target in assay [6] is T1, von Hippel-Lindau disease tumor suppressor/Phosphatidylinositol 4,5-bisphosphate 3-kinase catalytic subunit alpha isoform (Homo sapiens). In words: PROTAC activity at VHL/PI3K in human HeLa cells assessed as induction of PI3Kalpha degradation at 10 uM incubated for 24 hrs by Western blotting analysis. The class given is cell-based.
For assay [7] the target is unchanged. In words: PROTAC activity at VHL/PI3K in human HeLa cells assessed as induction of PI3Kalpha degradation at 3 uM incubated for 24 hrs by Western blotting analysis. It counts as cell-based.
Assay [8] has the same target. In words: PROTAC activity at VHL/PI3K in human HeLa cells assessed as redcution in AKT phosphorylation at 3 uM incubated for 24 hrs by Western blotting analysis. It counts as cell-based.
Assay [9] shares this target. In words: PROTAC activity at VHL/PI3K in human HeLa cells assessed as reduction in AKT phosphorylation at 10 uM incubated for 24 hrs by Western blotting analysis. It counts as cell-based.
For assay [10] the target is unchanged. In words: PROTAC activity at VHL/PI3K in human HeLa cells assessed as inhibition of AKT phosphorylation by Western blotting analysis. It counts as cell-based. To be noted: time 2-12 hrs, TDE = time-dependent effect.
For assay [11] the target is unchanged. In words: PROTAC activity at VHL/PI3K in human HeLa cells assessed as induction of PI3Kalpha degradation by Western blotting analysis. To be noted: time 2-12 hrs, TDE = time-dependent effect. The class given is cell-based.

Molecules are shown by their SMILES. Active and inactive are the calls of the source. The rule behind the calls is not given here.

Regarding `COc1ncc(-c2ccc3ncc(-c4nnc(-c5ccccc5C(=O)NCCOCCOCCOCCOCC(=O)N[C@H](C(=O)N5CC(O)CC5C(=O)NCc5ccc(-c6scnc6C)cc5)C(C)(C)C)o4)n3c2)cc1NS(=O)(=O)c1ccc(F)cc1F` (single isomer, unassigned), the Activity in assay [1] is recorded as 57.87%; in assay [3], 89.6%; in assay [4] it was 50.35%. In [2], the inhibition was 57.5%.

In the case of `COc1ncc(-c2ccc3ncc(-c4nnc(-c5ccccc5C(=O)NCCCCC(=O)N[C@H](C(=O)N5C[C@@H](O)C[C@@H]5C(=O)NCc5ccc(-c6scnc6C)cc5)C(C)(C)C)o4)n3c2)cc1NS(=O)(=O)c1ccc(F)cc1F`, the Activity came out at 23.94% in assay [1], 32.2% in assay [3] and 82.88% in [4]. Moreover, in assay [2], the inhibition was 22.2%.

As to `COc1ncc(-c2ccc3ncc(-c4nnc(-c5ccccc5C(=O)NCCOCCOCC(=O)N[C@H](C(=O)N5C[C@@H](O)C[C@@H]5C(=O)NCc5ccc(-c6scnc6C)cc5)C(C)(C)C)o4)n3c2)cc1NS(=O)(=O)c1ccc(F)cc1F`, the Activity in [1] is 33.84%; in assay [3], 89.21%; in assay [4], 57.14%. Also, the inhibition in assay [2] came to 31.7%.

On to `COc1ncc(-c2ccc3ncc(-c4nnc(-c5ccccc5C(=O)NCCOCCOCCOCCOCCOCCOCC(=O)N[C@H](C(=O)N5C[C@@H](O)C[C@@H]5C(=O)NCc5ccc(-c6scnc6C)cc5)C(C)(C)C)o4)n3c2)cc1NS(=O)(=O)c1ccc(F)cc1F`, for which the Activity in [1] is 56.24%; in assay [3], 91.27%. Moreover, the inhibition in [2] came to 48.6%.

For `COc1ncc(-c2ccc3ncc(-c4nnc(-c5ccccc5C(=O)NCCOCCOCCOCCOCCOCC(=O)N[C@H](C(=O)N5C[C@@H](O)C[C@@H]5C(=O)NCc5ccc(-c6scnc6C)cc5)C(C)(C)C)o4)n3c2)cc1NS(=O)(=O)c1ccc(F)cc1F`, the values for the Activity in assay [1], in assay [3] and in [4] were 37.32%, 85.58% and 61.35%, respectively. Besides, the inhibition in [2] was 51.9%.

For `COC(=O)c1ccccc1-c1nnc(-c2cnc3ccc(-c4cnc(OC)c(NS(=O)(=O)c5ccc(F)cc5F)c4)cn23)o1`, the Activity in assay [1] is recorded as 91.65%; in assay [3] it was 99.37%; in assay [4], 80.36%. Moreover, in assay [2], the inhibition is 70.2%.

`COc1ncc(-c2ccc3ncc(-c4nnc(-c5ccccc5C(=O)NCCOCC(=O)N[C@H](C(=O)N5C[C@@H](O)C[C@@H]5C(=O)NCc5ccc(-c6scnc6C)cc5)C(C)(C)C)o4)n3c2)cc1NS(=O)(=O)c1ccc(F)cc1F`: the Activity in assay [1] worked out at 25.32%; in assay [3] it was 23.41%; in assay [4], 51.09%. For the same molecule, the inhibition in [2] is 40.1%.

Regarding `COc1ncc(-c2ccc3ncc(-c4nnc(-c5ccccc5C(=O)N[C@H](C(=O)N5C[C@@H](O)C[C@@H]5C(=O)NCc5ccc(-c6scnc6C)cc5)C(C)(C)C)o4)n3c2)cc1NS(=O)(=O)c1ccc(F)cc1F`, the Activity in assay [1] is on record as 95.86%; in assay [3], 30.38%. Moreover, the inhibition in assay [2] was determined as 33.6%.

For the molecule `COc1ncc(-c2ccc3ncc(-c4nnc(-c5ccccc5C(=O)NCCCCCCC(=O)N[C@H](C(=O)N5C[C@@H](O)C[C@@H]5C(=O)NCc5ccc(-c6scnc6C)cc5)C(C)(C)C)o4)n3c2)cc1NS(=O)(=O)c1ccc(F)cc1F`, the outcome in assay [5], in assay [6], in assay [7], in assay [8] and in assay [9] was Active. The Activity in assay [1] is 50.3%; in assay [10] it was “Tde”; in assay [11], “Tde”; in assay [3], 96.33%; in [4], 72.18%. Also, the inhibition in assay [2] turned out to be 49.8%.

`COc1ncc(-c2ccc3ncc(-c4nnc(-c5ccccc5C(=O)NCCOCCOCCOCC(=O)N[C@H](C(=O)N5C[C@@H](O)C[C@@H]5C(=O)NCc5ccc(-c6scnc6C)cc5)C(C)(C)C)o4)n3c2)cc1NS(=O)(=O)c1ccc(F)cc1F`: the Activity in assay [1] is 48.88%; in assay [3], 90.1%; in assay [4], 22.69%. In assay [2], the inhibition was 59.1%.

With `COc1ncc(-c2ccc3ncc(-c4nnc(-c5ccccc5C(=O)O)o4)n3c2)cc1NS(=O)(=O)c1ccc(F)cc1F`, the Activity in assay [1] is listed as 8.23%; in [3] it was 1.62%. The inhibition in [2] stood at 67.1%.

On to `COc1ncc(-c2ccc3ncc(-c4nnc(-c5ccccc5C(=O)NCCCCCC(=O)N[C@H](C(=O)N5C[C@@H](O)C[C@@H]5C(=O)NCc5ccc(-c6scnc6C)cc5)C(C)(C)C)o4)n3c2)cc1NS(=O)(=O)c1ccc(F)cc1F`, for which the result in assay [5], in assay [6], in assay [7], in assay [8] and in assay [9] was Active. The Activity was determined as 41.16% in [1], 94.03% in [3] and 89.26% in assay [4]. Moreover, the inhibition in assay [2] was 60%.

Consider `COc1ncc(-c2ccc3ncc(-c4nnc(-c5ccccc5C(=O)NCCCCCCCC(=O)N[C@H](C(=O)N5CC(O)CC5C(=O)NCc5ccc(-c6scnc6C)cc5)C(C)(C)C)o4)n3c2)cc1NS(=O)(=O)c1ccc(F)cc1F` (single isomer, unassigned), for which the Activity in assay [1] is given as 70.03%; in assay [3], 87.89%; in [4] it was 74.22%. Further, the inhibition in assay [2] turned out to be 65.2%.

For the origin of these results see ChEMBL document CHEMBL5120803, “Design, synthesis and activity study of a novel PI3K degradation by hijacking VHL E3 ubiquitin ligase” (2022).
